{"source": "patent US7078422B2", "about": "“Activator for peroxisome proliferator-activated receptor” (Nippon Chemiphar Co., Ltd., priority 2001, dated 2006)", "key": {"GAL4-hPPARδ LBD": {"target": "T1, GAL4-hPPARδ LBD (Homo sapiens, UniProt Q03181)", "T1 construct": "A chimeric receptor expression plasmid (GAL4-hPPARδ LBD); expressed in transfected cells; host or cells: CV-1 cells", "T1 sequence (Q03181 211-439 limits assumed)": "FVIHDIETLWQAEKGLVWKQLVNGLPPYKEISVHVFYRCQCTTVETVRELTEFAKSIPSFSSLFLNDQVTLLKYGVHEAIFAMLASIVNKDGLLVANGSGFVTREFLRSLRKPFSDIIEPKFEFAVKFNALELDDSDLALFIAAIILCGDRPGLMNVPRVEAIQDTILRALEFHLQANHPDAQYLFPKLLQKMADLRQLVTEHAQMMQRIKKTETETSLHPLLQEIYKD", "experiment": "PPARδ transactivation activity (GAL4 chimeric receptor luciferase reporter in CV-1 cells)", "format": "cell-based", "details": "tested compound at 10^−5 M, control 10^−4 M L-165041 set to 100%, DMSO alone 0%, 40 hours", "method": "The PPARδ activating effect of the compound of the invention was determined by the following method:\nA chimeric receptor expression plasmid (GAL4-hPPARδ LBD), a reporter plasmid (UASx4-TK-LUC) and β-galactosidase (β-GAL) are transfected into CV-1 cells by utilizing a lipofection reagent DMRIE-C (Life Technologies). Subsequently, it is incubated for 40 hours in the presence of a compound of the invention or a compound for comparison (GW-2433), and then the luciferase activity and β-GAL activity are measured on the soluble cells.\n(§1) The luciferase activity is calibrated by the β-GAL activity. A relative ligand activity relating to PPARγ-activating effect is calculated in the same manner (see the below-described Example 3).\n(§2) (1) Measurement of PPARγ, δ Transactivation Activity\n(§3) Each of PPARγ & δ transactivation activities of the tested compound [compound of Example 1 and known PPARγ agonist (Rosiglitazone) and known PPARδ agonist (L-165041)] was measured in the manner described below.\nCV-1 was obtained from Tohoku University Aging Medical Laboratory, Medical Cell Collection Center. All test compounds were dissolved in dimethylsulfoxide (DMSO) to give a test sample of 0.1% concentration. […]\nThe culture medium was removed and the cells were washed with PBS twice. […] (luciferase activity) was measured by means of MLR-100 type Microluminoreader (available from Corona Electrics Co., Ltd.). […]"}, "GAL4-hPPARγ LBD": {"target": "T2, GAL4-hPPARγ LBD (Homo sapiens, UniProt P37231)", "T2 construct": "Receptor expression plasmid (GAL4-hPPARγ LBD, GAL4-hPPARδ LBD); expressed in transfected cells; host or cells: CV-1 cells", "T2 sequence (P37231 238-503 limits assumed)": "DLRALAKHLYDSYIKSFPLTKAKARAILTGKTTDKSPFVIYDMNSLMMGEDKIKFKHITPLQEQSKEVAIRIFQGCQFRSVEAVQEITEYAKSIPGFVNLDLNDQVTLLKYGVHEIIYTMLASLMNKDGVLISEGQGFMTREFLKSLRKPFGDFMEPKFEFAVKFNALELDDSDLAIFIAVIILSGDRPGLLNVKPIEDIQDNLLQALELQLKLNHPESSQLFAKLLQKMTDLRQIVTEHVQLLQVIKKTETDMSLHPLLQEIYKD", "experiment": "PPARγ transactivation activity (GAL4 chimeric receptor luciferase reporter in CV-1 cells)", "format": "cell-based", "details": "tested compound at 10^−5 M, control 10^−5 M Rosiglitazone set to 100%, DMSO alone 0%, 40 hours", "method": "as §1, §2, §3\nCV-1 was obtained from Tohoku University Aging Medical Laboratory, Medical Cell Collection Center. All test compounds were dissolved in dimethylsulfoxide (DMSO) to give a test sample of 0.1% concentration.\nReceptor expression plasmid (GAL4-hPPARγ LBD, GAL4-hPPARδ LBD), Luciferase expression plasmid (UASx4-TK-LUC), and β-galactosidase expression plasmid (βGAL) similar to Kliewer, S. A., et al., ((1992) Nature, 358:771–774) were employed. […]\nThe culture medium was removed and the cells were washed with PBS twice. […] (luciferase activity) was measured by means of MLR-100 type Microluminoreader (available from Corona Electrics Co., Ltd.). […] A relative PPAR activity was calculated based on the following: 0% (luciferase activity (control value) of cells treated with DMSO (0.1% concentration, solvent) alone), 100% (luciferase activity of cells treated with a control reagent (PPARγ: 10^−5 M Rosiglitazone, PPARδ: 10^−4 M L-165041))."}}}
{"smiles": "CC(C)c1oc(-c2ccccc2Cl)nc1CCCC(=O)c1ccc(CC(=O)O)cc1", "note": "[Example 1, [4-[4-[2-(2-Chlorophenyl)-5-isopropyloxazol-4-yl]butyryl]phenyl]acetic acid]", "values": [{"measurement": "PPAR activity (relative value) for PPARδ", "setting": "GAL4-hPPARδ LBD", "value": "93±3", "unit": "%"}, {"measurement": "PPAR activity (relative value) for PPARγ", "setting": "GAL4-hPPARγ LBD", "value": 50, "unit": "%"}]}
